Measured values: EP4722228A1, “NEW COMPOUND TARGETING MUSK AND USE THEREOF” (The University of Tokyo, priority 2023, dated 2024)
Bridge positions count the residues as written; N and C are the ends. Square brackets hold non-standard residues; d marks the D form. Peptide text beside a SMILES is read from it. I, II: the chains in the order shown. * marks the point of attachment. Palmitoyl = CCCCCCCCCCCCCCCC(=O)*; PEG3 = NCCOCCOCCOCCC(=O)O; Dap = NC[C@H](N)C(=O)O

Experiments:
[1] = system: rat PTMG model using anti-acetylcholine receptor monoclonal antibody (mAb35); test: Body weight change in rat PTMG model (myasthenia gravis model animals); type: in vivo; settings: 0 to 72 hr
Experimental: (§1) 5-week-old female rats (n=20, LEW/CrlCrlj, 4 weeks old when carried in, Jackson Laboratory Japan) were divided into four groups (Group A, Group B, Group C, and Group D) using body weight measurement results as indexes. Vehicle was administered to Group A, and the test compound MuSK7-pal dissolved in vehicle was administered intravenously to each of Group B (3 mg/kg), Group C (2 mg/kg), and Group D (1 mg/kg) (Day 0). Two hours after intravenous administration, an anti-nicotinic acetylcholine receptor monoclonal antibody (mAb35, National Hospital Organization Nagasaki Kawatana Medical Center) dissolved in PBS (pH 7.4) as a drug for inducing the pathology of myasthenia gravis was administered intraperitoneally to all animals at 200 µg/rat (Day 0). The vehicle, which was a solvent of the compound, was phosphate-buffered saline (PBS) at pH 7.4 containing 20% hydroxypropyl-β-cyclodextrin and 0.02% polysorbate 80 (the same applies to Example 3(2)).
Next, the body weight of the animals was measured before antibody administration (pre) and at 0, 9, 24, 33, 48, 57, and 72 hours (hr) after antibody administration. The movement, muscle strength, and grip strength of the animals were evaluated by the following tests.
as §1, with “(n=24,” for “(n=20,”, “(0.5” for “(3”, “(0.25” for “(2”, “(0.1” for “(1”, “0).” for “0). The vehicle, which was a solvent of the compound, was phosphate-buffered saline (PBS) at pH 7.4 containing 20% hydroxypropyl-β-cyclodextrin and 0.02% polysorbate 80 (the same applies to Example 3(2)).”
5-week-old female rats (LEW/CrlCrlj, 4 weeks old when carried in, Jackson Laboratory Japan) were divided into three groups (Group A, Group B, and Group C) using body weight measurement results as indexes. The test compound (tetramer of Ub012 (EAAAK)3) dissolved in vehicle was administered intravenously to Group A (5 mg/kg) (n=5), the test compound (tetramer of Ub012(ΔGG) (EAAAK)3) dissolved in vehicle was administered intravenously to Group B (5 mg/kg) (n=5), and vehicle was administered intravenously to Group C (n=5), respectively (Day 0). Two hours after intravenous administration, an anti-nicotinic acetylcholine receptor monoclonal antibody (mAb35, National Hospital Organization Nagasaki Kawatana Medical Center) dissolved in PBS (pH 7.4) as a drug for inducing the pathology of myasthenia gravis was administered intraperitoneally to all animals at 200 µg/rat (Day 0).

mouse MuSK = biological target: T1, mouse MuSK (Mus musculus, UniProt Q61006); test: SPR binding activity test to mouse MuSK (Biacore); settings: Table 5
T1 construct: made in house
T1 sequence (Q61006 22-494 limits assumed): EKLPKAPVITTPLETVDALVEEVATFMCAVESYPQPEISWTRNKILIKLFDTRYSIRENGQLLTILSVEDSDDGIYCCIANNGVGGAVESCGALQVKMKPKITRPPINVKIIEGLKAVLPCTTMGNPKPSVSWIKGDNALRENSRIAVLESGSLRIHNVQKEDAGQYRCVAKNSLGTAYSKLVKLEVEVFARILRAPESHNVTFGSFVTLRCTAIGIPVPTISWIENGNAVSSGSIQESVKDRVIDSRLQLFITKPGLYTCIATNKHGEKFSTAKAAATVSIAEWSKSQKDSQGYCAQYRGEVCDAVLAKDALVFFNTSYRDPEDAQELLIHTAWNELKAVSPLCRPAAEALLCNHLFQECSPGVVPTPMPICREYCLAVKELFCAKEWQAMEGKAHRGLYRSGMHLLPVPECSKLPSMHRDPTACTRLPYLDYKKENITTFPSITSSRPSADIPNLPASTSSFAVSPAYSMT
Experimental: The strength of binding between MuSK and the cyclic peptides was evaluated by quantitatively measuring the binding kinetics (binding affinity (dissociation constant) KD) of the cyclic peptides to MuSK immobilized on a sensor chip via an Fc tag, using surface plasmon resonance (SPR).
According to the standard immobilization protocol provided by the manufacturer, Fc-tagged human/mouse/rat MuSK was immobilized on a Protein G chip or a Protein A chip (Cytiva). A running buffer for the monomer/dimer peptides contained 0.010 M phosphate, 0.14 M NaCl, 0.0027 M KCl, 0.05% (v/v) Tween 20, and 0.1% (v/v) DMSO. A running buffer for the monomer/dimer U-bodies contained 0.010 M phosphate, 0.14 M NaCl, 0.0027 M KCl, and 0.05% (v/v) Tween 20. A series of concentrations of each monomer peptide, dimer peptide, monomer U-body, and dimer U-body was injected as analytes. A 1:1 binding fitting analysis was applied using Biacore evaluation software, and ka, kd, and KD values were determined.
Fc-tagged human MuSK was prepared according to the procedure described in Example 1(1). In addition, Fc-tagged mouse MuSK was used by expressing a nucleotide sequence encoding the Fc-tagged mouse MuSK extracellular domain (SEQ ID NO: 34). […]
The affinity of the U-bodies and their complexes obtained as described above for MuSK of human, rat, and mouse was evaluated (binding activity test). […]

With CCCCCCCCCCCCCCCC(=O)NCCCC[C@H](NC(=O)[C@H](CNC(=O)CCOCCOCCOCCNC(=O)CNC(=O)[C@@H]1CSCC(=O)N[C@H](Cc2ccc(O)cc2)C(=O)N2CCC[C@H]2C(=O)N[C@@H](CO)C(=O)N[C@@H](Cc2ccc(O)cc2)C(=O)N[C@@H](Cc2c[nH]cn2)C(=O)N[C@@H]([C@@H](C)O)C(=O)N[C@@H](CC(N)=O)C(=O)N[C@@H](C(C)C)C(=O)N[C@@H](C(C)C)C(=O)N[C@@H](C)C(=O)N[C@@H](CO)C(=O)N[C@@H](CC(C)C)C(=O)N[C@@H](CCCCN)C(=O)N[C@@H](CCCNC(=N)N)C(=O)N1)NC(=O)CCOCCOCCOCCNC(=O)CNC(=O)[C@@H]1CSCC(=O)N[C@H](Cc2ccc(O)cc2)C(=O)N2CCC[C@H]2C(=O)N[C@@H](CO)C(=O)N[C@@H](Cc2ccc(O)cc2)C(=O)N[C@@H](Cc2c[nH]cn2)C(=O)N[C@@H]([C@@H](C)O)C(=O)N[C@@H](CC(N)=O)C(=O)N[C@@H](C(C)C)C(=O)N[C@@H](C(C)C)C(=O)N[C@@H](C)C(=O)N[C@@H](CO)C(=O)N[C@@H](CC(C)C)C(=O)N[C@@H](CCCCN)C(=O)N[C@@H](CCCNC(=N)N)C(=O)N1)C(N)=O [MuSK7-pal] (I: {CH2CO}-[dY]PSYHTNVVASLKRCG[PEG3][Dap]K(Palmitoyl)-NH2 / II: {CH2CO}-[dY]PSYHTNVVASLKRCG[PEG3]; amide I:18-II:C; thioether I:N-I:15, II:N-II:15) the body weight ([1]; 0.1 mg/kg intravenously 2 h before mAb35 (Group D, Example 3(2))) was “milder than that in Group A”, the body weight ([1]; 0.25 mg/kg intravenously 2 h before mAb35 (Group C, Example 3(2))) was “milder than that in Group A” and the body weight ([1]; 0.5 mg/kg intravenously 2 h before mAb35 (Group B, Example 3(2))) was “milder than that in Group A”. For the same molecule, the body weight ([1]; 1 mg/kg intravenously 2 h before mAb35 (Group D, Example 3(1))) was “almost no significant decrease in body weight”, the body weight ([1]; 2 mg/kg intravenously 2 h before mAb35 (Group C, Example 3(1))) was “milder than that in Group A” and the body weight ([1]; 3 mg/kg intravenously 2 h before mAb35 (Group B, Example 3(1))) was “milder than that in Group A”. The Kd (mouse MuSK) was 8.8 nM.
